Where a name gives a salt, the structure may show the parent alone. Read-outs that look alike come from different tables or passages of the source.
Experiments:
[1] = system: plasmodium berghei; assay: suppression of parasitemia in mice infected with plasmodium berghei; assay type: in vivo; details: for ED50: Plasmodium berghei, sc; for FACTOR (HIGHEST SED50 ÷ LOWEST SED50): factor of change, duration of action
Method: Five representative amidinoureas were tested in mice infected with plasmodium berghei. The five compounds tested are the following:
Groups of 10 mice each were used in seven doses totaling 70 mice per compound. The protozoal infection was induced by intraperitoneal injection of 5,000,000 parasitized blood cells from a donor. The compound was administered subcutaneously in doses ranging from 0.15 to 10 mg. per kg., suspended on 0.5% methacel solution (doses expressed as base). The compound was repeatedly injected on the day of inoculation (day 1), day 2 and day 3. Blood smears were performed on days 4, 5, 6 and 10.
Untreated control but infected mice developed fulminating parasitemia of as high as 35% on day 10 and deaths occurred from day 12 to 14.

[2] = LD50 in mice; details: mouse, in vivo
[3] = 96 h, mice, s.c., levels of parasitemia, 4th day, read-out: SED50 (Suppressant Effective Dose50)
[4] = 120 h, mice, s.c., levels of parasitemia, 5th day, read-out: SED50 (Suppressant Effective Dose50)
[5] = 144 h, mice, s.c., levels of parasitemia, 6th day, read-out: SED50 (Suppressant Effective Dose50)
[6] = 240 h, mice, s.c., levels of parasitemia, 10th day, read-out: SED50 (Suppressant Effective Dose50)
[7] = mice, day 4 to day 10, read-out: HIGHEST SED50
[8] = mice, day 4 to day 10, read-out: LOWEST SED50
[9] = mice, s.c., 1.0 mg/kg on days 1-3, 4th day
[10] = mice, s.c., 1.0 mg/kg on days 1-3, 5th day
[11] = mice, s.c., 1.0 mg/kg on days 1-3, 6th day
[12] = mice, s.c., 1.0 mg/kg on days 1-3, 10th day
[13] = mice, s.c., 1.0 mg/kg on days 1-3, 12th day
[14] = mice, s.c., 1.0 mg/kg on days 1-3, 13th day
[15] = mice, s.c., 1.0 mg/kg on days 1-3, 14th day
[16] = mice, s.c., 2.0 mg/kg on days 1-3, 4th day
[17] = mice, s.c., 2.0 mg/kg on days 1-3, 5th day
[18] = mice, s.c., 2.0 mg/kg on days 1-3, 6th day
[19] = mice, s.c., 2.0 mg/kg on days 1-3, 10th day
[20] = mice, s.c., 2.0 mg/kg on days 1-3, 12th day
[21] = mice, s.c., 2.0 mg/kg on days 1-3, 13th day
[22] = mice, s.c., 2.0 mg/kg on days 1-3, 14th day
[23] = mice, s.c., 10.0 mg/kg on days 1-3, 4th day
[24] = mice, s.c., 10.0 mg/kg on days 1-3, 5th day
[25] = mice, s.c., 10.0 mg/kg on days 1-3, 6th day
[26] = mice, s.c., 10.0 mg/kg on days 1-3, 10th day
[27] = mice, s.c., 10.0 mg/kg on days 1-3, 12th day
[28] = mice, s.c., 10.0 mg/kg on days 1-3, 13th day
[29] = mice, s.c., 10.0 mg/kg on days 1-3, 14th day
[30] = mice, s.c., .15 mg/kg on days 1-3, 4th day
[31] = mice, s.c., .15 mg/kg on days 1-3, 5th day
[32] = mice, s.c., .15 mg/kg on days 1-3, 6th day
[33] = mice, s.c., .15 mg/kg on days 1-3, 10th day
[34] = mice, s.c., .15 mg/kg on days 1-3, 12th day
[35] = mice, s.c., .15 mg/kg on days 1-3, 13th day
[36] = mice, s.c., .15 mg/kg on days 1-3, 14th day
[37] = mice, s.c., .20 mg/kg on days 1-3, 4th day
[38] = mice, s.c., .20 mg/kg on days 1-3, 5th day
[39] = mice, s.c., .20 mg/kg on days 1-3, 6th day
[40] = mice, s.c., .20 mg/kg on days 1-3, 10th day
[41] = mice, s.c., .20 mg/kg on days 1-3, 12th day
[42] = mice, s.c., .20 mg/kg on days 1-3, 13th day
[43] = mice, s.c., .20 mg/kg on days 1-3, 14th day
[44] = mice, s.c., .30 mg/kg on days 1-3, 4th day
[45] = mice, s.c., .30 mg/kg on days 1-3, 5th day
[46] = mice, s.c., .30 mg/kg on days 1-3, 6th day
[47] = mice, s.c., .30 mg/kg on days 1-3, 10th day
[48] = mice, s.c., .30 mg/kg on days 1-3, 12th day
[49] = mice, s.c., .30 mg/kg on days 1-3, 13th day
[50] = mice, s.c., .30 mg/kg on days 1-3, 14th day
[51] = mice, s.c., .50 mg/kg on days 1-3, 4th day
[52] = mice, s.c., .50 mg/kg on days 1-3, 5th day
[53] = mice, s.c., .50 mg/kg on days 1-3, 6th day
[54] = mice, s.c., .50 mg/kg on days 1-3, 10th day
[55] = mice, s.c., .50 mg/kg on days 1-3, 12th day
[56] = mice, s.c., .50 mg/kg on days 1-3, 13th day
[57] = mice, s.c., .50 mg/kg on days 1-3, 14th day

CNC(=N)NC(=O)Nc1c(C)cccc1Br [Compound B, 1-(2-bromo-6-methylphenyl)-3-methylamidino)urea hydrochloride]
ED50 [1, 3]: 1.87 mg/kg | ED50 [1, 4]: 1.87 mg/kg | ED50 [1, 5]: 1.66 mg/kg | ED50 [1, 6]: 1.87 mg/kg | ED50 [1, 7]: 1.87 mg/kg | ED50 [1, 8]: 1.66 mg/kg | FACTOR (HIGHEST SED50 ÷ LOWEST SED50) ([1]; day 4 to day 10): 1.12 | Mean % Parasitemia [1, 9]: 3.75% | Mean % Suppression [1, 9]: 28.6% | Mean % Parasitemia [1, 10]: 4.30% | Mean % Suppression [1, 10]: 41.1% | Mean % Parasitemia [1, 11]: 5.10% | Mean % Suppression [1, 11]: 45.2% | Mean % Parasitemia [1, 12]: 23.2% | Mean % Suppression [1, 12]: 34.6% | % died [1, 13]: 0% | % died [1, 14]: 20% | % died [1, 15]: 20% | Mean % Parasitemia [1, 16]: 2.50% | Mean % Suppression [1, 16]: 52.3% | Mean % Parasitemia [1, 17]: 3.40% | Mean % Suppression [1, 17]: 53.2% | Mean % Parasitemia [1, 18]: 4.50% | Mean % Suppression [1, 18]: 51.6% | Mean % Parasitemia [1, 19]: 19.8% | Mean % Suppression [1, 19]: 44.2% | % died [1, 20]: 0% | % died [1, 21]: 0% | % died [1, 22]: 20% | Mean % Parasitemia [1, 23]: 0.25% | Mean % Suppression [1, 23]: 96.2% | Mean % Parasitemia [1, 24]: 0.50% | Mean % Suppression [1, 24]: 94.0% | Mean % Parasitemia [1, 25]: 0.05% | Mean % Suppression [1, 25]: 99.6% | Mean % Parasitemia [1, 26]: 0% | Mean % Suppression [1, 26]: 100.0% | % died [1, 27]: 0% | % died [1, 28]: 0% | % died [1, 29]: 0% | Mean % Parasitemia [1, 30]: 5.00% | Mean % Suppression [1, 30]: 4.8% | Mean % Parasitemia [1, 31]: 7.00% | Mean % Suppression [1, 31]: 4.1% | Mean % Parasitemia [1, 32]: 7.80% | Mean % Suppression [1, 32]: 16.1% | Mean % Parasitemia [1, 33]: 34.1% | Mean % Suppression [1, 33]: 3.9% | % died [1, 34]: 20% | % died [1, 35]: 20% | % died [1, 36]: 20% | Mean % Parasitemia [1, 37]: 5.00% | Mean % Suppression [1, 37]: 4.8% | Mean % Parasitemia [1, 38]: 6.90% | Mean % Suppression [1, 38]: 5.5% | Mean % Parasitemia [1, 39]: 7.40% | Mean % Suppression [1, 39]: 20.4% | Mean % Parasitemia [1, 40]: 30.2% | Mean % Suppression [1, 40]: 14.9% | % died [1, 41]: 0% | % died [1, 42]: 20% | % died [1, 43]: 40% | Mean % Parasitemia [1, 44]: 4.00% | Mean % Suppression [1, 44]: 23.8% | Mean % Parasitemia [1, 45]: 6.60% | Mean % Suppression [1, 45]: 9.6% | Mean % Parasitemia [1, 46]: 6.90% | Mean % Suppression [1, 46]: 25.8% | Mean % Parasitemia [1, 47]: 29.1% | Mean % Suppression [1, 47]: 18.0% | % died [1, 48]: 0% | % died [1, 49]: 0% | % died [1, 50]: 40% | Mean % Parasitemia [1, 51]: 4.00% | Mean % Suppression [1, 51]: 23.8% | Mean % Parasitemia [1, 52]: 5.10% | Mean % Suppression [1, 52]: 30.1% | Mean % Parasitemia [1, 53]: 5.80% | Mean % Suppression [1, 53]: 37.6% | Mean % Parasitemia [1, 54]: 26.7% | Mean % Suppression [1, 54]: 24.8% | % died [1, 55]: 20% | % died [1, 56]: 40% | % died [1, 57]: 60% | LD50 [2]: 82 to 135 mg/kg

CCCNC(=O)NC(=N)Nc1c(Cl)cccc1Cl [Compound A, 1-(2,6-dichlorophenylamidino)-3-n-propylurea]
ED50 [1, 3]: 0.71 mg/kg | ED50 [1, 4]: 1.2 mg/kg | ED50 [1, 5]: 1.05 mg/kg | ED50 [1, 6]: 1.58 mg/kg | ED50 [1, 7]: 1.58 mg/kg | ED50 [1, 8]: 0.71 mg/kg | FACTOR (HIGHEST SED50 ÷ LOWEST SED50) ([1]; day 4 to day 10): 2.23 | duration of action ([1]; mice, among the five compounds): longest duration of action | SED50 rank ([1]; mice, day 10, among the five compounds): lowest SED50 on day 10 | Mean % Parasitemia [1, 9]: 2.50% | Mean % Suppression [1, 9]: 52.3% | Mean % Parasitemia [1, 10]: 4.20% | Mean % Suppression [1, 10]: 42.5% | Mean % Parasitemia [1, 11]: 4.60% | Mean % Suppression [1, 11]: 50.5% | Mean % Parasitemia [1, 12]: 20.4% | Mean % Suppression [1, 12]: 42.5% | % died [1, 13]: 0% | % died [1, 14]: 20% | % died [1, 15]: 40% | Mean % Parasitemia [1, 16]: 2.25% | Mean % Suppression [1, 16]: 57.1% | Mean % Parasitemia [1, 17]: 3.00% | Mean % Suppression [1, 17]: 59.0% | Mean % Parasitemia [1, 18]: 3.80% | Mean % Suppression [1, 18]: 59.1% | Mean % Parasitemia [1, 19]: 16.5% | Mean % Suppression [1, 19]: 53.5% | % died [1, 20]: 0% | % died [1, 21]: 0% | % died [1, 22]: 20% | Mean % Parasitemia [1, 23]: 0% | Mean % Suppression [1, 23]: 100.0% | Mean % Parasitemia [1, 24]: 0% | Mean % Suppression [1, 24]: 100.0% | Mean % Parasitemia [1, 25]: 0% | Mean % Suppression [1, 25]: 100.0% | Mean % Parasitemia [1, 26]: 0% | Mean % Suppression [1, 26]: 100.0% | % died [1, 27]: 0% | % died [1, 28]: 0% | % died [1, 29]: 0% | Mean % Parasitemia [1, 30]: 5.00% | Mean % Suppression [1, 30]: 4.8% | Mean % Parasitemia [1, 31]: 6.90% | Mean % Suppression [1, 31]: 5.5% | Mean % Parasitemia [1, 32]: 8.10% | Mean % Suppression [1, 32]: 12.9% | Mean % Parasitemia [1, 33]: 33.02% | Mean % Suppression [1, 33]: 7.0% | % died [1, 34]: 40% | % died [1, 35]: 60% | % died [1, 36]: 80% | Mean % Parasitemia [1, 37]: 4.00% | Mean % Suppression [1, 37]: 23.8% | Mean % Parasitemia [1, 38]: 6.80% | Mean % Suppression [1, 38]: 6.8% | Mean % Parasitemia [1, 39]: 7.50% | Mean % Suppression [1, 39]: 19.4% | Mean % Parasitemia [1, 40]: 30.1% | Mean % Suppression [1, 40]: 15.2% | % died [1, 41]: 0% | % died [1, 42]: 20% | % died [1, 43]: 20% | Mean % Parasitemia [1, 44]: 3.25% | Mean % Suppression [1, 44]: 38.1% | Mean % Parasitemia [1, 45]: 6.30% | Mean % Suppression [1, 45]: 13.7% | Mean % Parasitemia [1, 46]: 7.20% | Mean % Suppression [1, 46]: 22.6% | Mean % Parasitemia [1, 47]: 28.5% | Mean % Suppression [1, 47]: 19.7% | % died [1, 48]: 0% | % died [1, 49]: 20% | % died [1, 50]: 20% | Mean % Parasitemia [1, 51]: 2.75% | Mean % Suppression [1, 51]: 47.6% | Mean % Parasitemia [1, 52]: 5.00% | Mean % Suppression [1, 52]: 31.5% | Mean % Parasitemia [1, 53]: 5.40% | Mean % Suppression [1, 53]: 41.9% | Mean % Parasitemia [1, 54]: 24.8% | Mean % Suppression [1, 54]: 30.1% | % died [1, 55]: 0% | % died [1, 56]: 0% | % died [1, 57]: 40% | LD50 [2]: > 600 mg/kg
